What was measured:
human recombinant HDAC2 = human recombinant HDAC2 (Homo sapiens, UniProt Q92769); experiment: HDAC activity assay, recombinant HDAC2; assay type: biochemical
[1] = target: T1, recombinant HDAC8 (purified from E. coli) (Homo sapiens, UniProt Q9BY41); experiment: HDAC activity assay, recombinant HDAC8; assay type: biochemical
T1 sequence (Q9BY41 1-377): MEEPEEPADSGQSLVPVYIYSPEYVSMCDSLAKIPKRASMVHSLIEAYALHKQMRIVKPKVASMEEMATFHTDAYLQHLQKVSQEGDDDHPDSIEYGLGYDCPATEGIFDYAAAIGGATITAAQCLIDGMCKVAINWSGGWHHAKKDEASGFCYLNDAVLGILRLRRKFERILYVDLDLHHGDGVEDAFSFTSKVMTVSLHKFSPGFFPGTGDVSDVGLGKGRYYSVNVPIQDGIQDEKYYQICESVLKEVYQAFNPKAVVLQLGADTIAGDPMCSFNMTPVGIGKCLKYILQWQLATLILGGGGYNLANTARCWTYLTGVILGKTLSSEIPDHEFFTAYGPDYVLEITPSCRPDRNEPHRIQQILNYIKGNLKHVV

human recombinant HDAC1 = human recombinant HDAC1 (Homo sapiens, UniProt Q13547); experiment: HDAC activity assay, recombinant HDAC1; assay type: biochemical
Sequence of human recombinant HDAC1 (Q13547 whole entry): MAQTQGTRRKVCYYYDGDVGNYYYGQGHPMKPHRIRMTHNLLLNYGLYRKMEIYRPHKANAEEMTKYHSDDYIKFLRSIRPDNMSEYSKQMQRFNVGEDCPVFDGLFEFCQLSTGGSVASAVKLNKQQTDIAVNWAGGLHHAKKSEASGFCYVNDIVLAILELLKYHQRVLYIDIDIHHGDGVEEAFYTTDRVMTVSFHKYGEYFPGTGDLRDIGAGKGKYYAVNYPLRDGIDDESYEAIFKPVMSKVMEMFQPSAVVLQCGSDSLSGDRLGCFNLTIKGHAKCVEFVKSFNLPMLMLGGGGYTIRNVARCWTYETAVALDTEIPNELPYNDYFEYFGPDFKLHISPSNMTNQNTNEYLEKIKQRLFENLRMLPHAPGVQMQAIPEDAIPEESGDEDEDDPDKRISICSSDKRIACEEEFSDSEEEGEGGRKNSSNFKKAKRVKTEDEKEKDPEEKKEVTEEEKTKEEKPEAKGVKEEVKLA

human recombinant HDAC3 = human recombinant HDAC3 (Homo sapiens, UniProt O15379); experiment: HDAC activity assay, recombinant HDAC3; assay type: biochemical
Sequence of human recombinant HDAC3 (O15379 whole entry): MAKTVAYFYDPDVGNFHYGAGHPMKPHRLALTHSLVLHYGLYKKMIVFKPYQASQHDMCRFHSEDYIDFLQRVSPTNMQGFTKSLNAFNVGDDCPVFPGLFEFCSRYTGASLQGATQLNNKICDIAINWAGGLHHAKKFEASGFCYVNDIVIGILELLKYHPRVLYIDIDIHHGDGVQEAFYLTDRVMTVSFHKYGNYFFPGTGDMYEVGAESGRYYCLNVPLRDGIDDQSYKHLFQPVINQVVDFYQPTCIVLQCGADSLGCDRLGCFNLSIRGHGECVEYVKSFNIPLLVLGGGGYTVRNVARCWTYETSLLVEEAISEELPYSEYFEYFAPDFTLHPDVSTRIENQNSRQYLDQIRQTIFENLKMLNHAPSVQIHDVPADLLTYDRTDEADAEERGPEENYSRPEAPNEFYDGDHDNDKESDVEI
Sequence of human recombinant HDAC3 (Q9Y618 395-489 partner limits assumed): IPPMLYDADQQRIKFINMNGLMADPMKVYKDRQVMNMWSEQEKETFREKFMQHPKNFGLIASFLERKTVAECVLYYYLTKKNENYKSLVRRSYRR

MCF-7 cells = conditions: MCF-7, 48 h, 4-OHT 10 μM; ref Bicaku et al. [9b]; cited from earlier work
MCF-7 ER(+) cells = experiment: Cytotoxicity assay; assay type: cell-based, human
ERα [2] = target: T2, ERα (Homo sapiens, UniProt P03372); experiment: Inhibition of 17β estradiol induced ERE-luciferase activity in MCF-7 cells; assay type: cell-based; conditions: cotreatment with E2
T2 sequence (P03372 1-595): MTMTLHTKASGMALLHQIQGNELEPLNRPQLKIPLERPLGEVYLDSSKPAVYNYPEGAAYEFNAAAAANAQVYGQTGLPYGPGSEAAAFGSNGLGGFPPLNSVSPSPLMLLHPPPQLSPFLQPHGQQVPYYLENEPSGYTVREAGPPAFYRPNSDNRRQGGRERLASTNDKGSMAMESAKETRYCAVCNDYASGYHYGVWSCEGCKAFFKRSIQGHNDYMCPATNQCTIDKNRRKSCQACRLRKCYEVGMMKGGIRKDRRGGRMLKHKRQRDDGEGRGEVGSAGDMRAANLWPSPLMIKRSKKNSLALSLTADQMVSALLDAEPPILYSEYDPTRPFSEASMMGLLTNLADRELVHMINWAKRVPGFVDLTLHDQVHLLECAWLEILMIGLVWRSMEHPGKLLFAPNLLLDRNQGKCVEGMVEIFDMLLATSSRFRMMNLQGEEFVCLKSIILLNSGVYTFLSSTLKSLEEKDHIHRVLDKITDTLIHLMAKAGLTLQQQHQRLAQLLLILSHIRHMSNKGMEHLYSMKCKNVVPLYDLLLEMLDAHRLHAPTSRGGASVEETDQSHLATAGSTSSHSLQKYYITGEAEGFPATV

ERα [3] = target: T2, ERα; experiment: Ishikawa alkaline phosphatase assay; assay type: cell-based
MDA-MB-231 ER(−) cells = experiment: Cytotoxicity assay; assay type: cell-based, human; conditions: hybrid molecules 10 μM; 24, 48 and 72 h

Sequence of human recombinant HDAC2 (Q92769 whole entry): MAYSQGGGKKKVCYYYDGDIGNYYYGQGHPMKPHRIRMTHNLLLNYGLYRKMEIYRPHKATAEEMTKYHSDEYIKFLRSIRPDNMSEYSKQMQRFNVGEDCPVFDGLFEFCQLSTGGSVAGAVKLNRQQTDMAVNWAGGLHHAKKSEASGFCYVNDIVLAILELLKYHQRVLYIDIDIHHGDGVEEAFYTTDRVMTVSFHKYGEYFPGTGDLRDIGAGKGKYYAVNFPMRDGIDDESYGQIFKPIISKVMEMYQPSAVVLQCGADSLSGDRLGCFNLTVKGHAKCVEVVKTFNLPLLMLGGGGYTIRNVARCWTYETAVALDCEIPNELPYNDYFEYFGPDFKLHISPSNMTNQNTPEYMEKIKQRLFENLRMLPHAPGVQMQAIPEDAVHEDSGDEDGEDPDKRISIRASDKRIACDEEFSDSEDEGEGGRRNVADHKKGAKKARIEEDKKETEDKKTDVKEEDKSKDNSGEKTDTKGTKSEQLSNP

SMILES: O=C(CCCCCNC(=O)c1c(-c2ccc(O)cc2)sc2cc(O)ccc12)NO [8a, 6-hydroxy-N-(6-(hydroxyamino)-6-oxohexyl)-2-(4-hydroxyphenyl)benzo[b]thiophene-3-carboxamide]
- IC50 (human recombinant HDAC2): 2.44 ± 0.02 µM
- IC50 [1]: 0.719 ± 0.063 µM
- IC50 (human recombinant HDAC1): 0.596 ± 0.051 µM
- IC50 (human recombinant HDAC3): 0.214 ± 0.006 µM

SMILES: O=C(Nc1cc(-c2ccccc2)ccc1O)c1c(-c2ccc(O)cc2)sc2cc(O)ccc12 [compound 10, 6-hydroxy-N-[4-hydroxy-(1,1′-biphenyl)-3-yl]-2-(hydroxyphenyl)benzo[b]thiophene-3-carboxamide]
- % inhibition of HDAC1 (human recombinant HDAC1; pre-incubation 3 h): 21–34%
- % inhibition of HDAC3 (human recombinant HDAC3; pre-incubation 3 h): 0–12%

SMILES: CC/C(=C(\c1ccc(O)cc1)c1ccc(OCCN(C)C)cc1)c1ccccc1 [4OHT, 4-hydroxytamoxifen]
- Increase in apoptosis in combination with SAHA over SAHA alone (MCF-7 cells): approximately 10%
- Cell death, combination with SAHA (MCF-7 ER(+) cells; ER(+) MCF-7 cells, 72 h combination treatment): modest but significantly increased cell death

SMILES: O=C(CCCCCCNC(=O)c1c(-c2ccc(O)cc2)sc2cc(O)ccc12)NO [8b, 6-hydroxy-N-(7-(hydroxyamino)-7-oxoheptyl)-2-(4-hydroxyphenyl)benzo[b]thiophene-3-carboxamide]
- Inhibition of estrogenic response (antiestrogenic activity), ERE-luciferase reporter (ERα [2]): concentration dependent inhibition of estrogenic response

SMILES: O=C(CCCCCn1cc(-c2ccc(C(=O)c3c(-c4ccc(O)cc4)sc4cc(O)ccc34)cc2)nn1)NO [15b, N-hydroxy-6-(4-(4-(6-hydroxy-2-(4-hydroxyphenyl)benzo[b]thiophene-3-carbonyl)phenyl)-1H-1,2,3-triazol-1-yl)hexanamide]
- IC50 (ERα [3]): 2.9 ± 0.3 µM
- Inhibition of estrogenic response (antiestrogenic activity), ERE-luciferase reporter (ERα [2]): concentration dependent inhibition of estrogenic response
- Cell death in MDA-MB-231 ER(−) cells (MDA-MB-231 ER(−) cells): caused significant cell death

SMILES: Oc1ccc(-c2sc3cc(O)ccc3c2Oc2ccc(OCCN3CCCCC3)cc2)cc1 [DMA, desmethylarzoxifene]
- Toxicity towards MCF-7 cells (MCF-7 ER(+) cells; 10 μM, 72 h treatment): toxic

SMILES: O=C(CCCCn1cc(-c2ccc(C(=O)c3c(-c4ccc(O)cc4)sc4cc(O)ccc34)cc2)nn1)NO [15a, N-hydroxy-5-(4-(4-(6-hydroxy-2-(4-hydroxyphenyl)benzo[b]thiophene-3-carbonyl)phenyl)-1H-1,2,3-triazol-1-yl)pentanamide]
- IC50 (human recombinant HDAC2): 19.2 ± 0.65 µM
- IC50 [1]: 23.5 ± 1.5 µM
- IC50 (human recombinant HDAC1): 8.39 ± 0.3 µM
- IC50 (human recombinant HDAC3): 5.74 ± 0.53 µM
